We go through 14 compounds from patent US7276531B2, “G-lactam derivatives as prostaglandin agonists” (Applied Research Systems ARS Holding N.V., priority 2003, dated 2007).

For one test, the target named is h-EP2 (Homo sapiens, UniProt P43116). The experiment in a line: Prostaglandin EP2 receptor binding assay (3H-PGE2 SPA). The settings on record: EP2 receptor membranes, 20 nM 3H-PGE2, pH 6.0. The procedure: Compounds of the invention were tested in an EP2 receptor binding assay of the following protocol. As referred to herein, the term an “EP2 receptor binding assay” designates the following protocol.

Another test concerns the target h-EP4 (Homo sapiens, UniProt P35408). The experiment in a line: EP4 receptor binding assay (3H-PGE2 SPA). The settings on record: EP4 receptor membranes, 20 nM 3H-PGE2, pH 6.0. On the procedure:
Compounds of the invention were tested in an EP4 receptor binding assay of the following protocol.

A further test concerns the target T1, hEP4 receptors (Homo sapiens, UniProt P35408).
T1 construct: expressed in transfected cells; host or cells: HEK293-EBNA
Description: EP4 cAMP assay, HEK293-EBNA cells transfected with pCEP4-hEP4 receptors. The test is classed as cell-based. The settings on record: total cAMP, 1 hour. On the procedure:
Compounds of the invention were tested in a total cAMP assay as follows. HEK293-EBNA cells transfected with pCEP4-hEP4 receptors were seeded in 96 well opaque plate (Costar #3917) at 4×10^4 cells per well in 100 μl of culture medium (D-MEM/F12 supplemented with 10% FBS, […] L-glutamine, and 250 μg/ml of hygromycin; all from GibcoBRL) and incubated at 37° C. After overnight incubation, the medium was removed from each well and replaced with 45 μl of assay medium consisted of phenol red free D-MEM/F-12, 0.1% BSA (GibcoBRL) and 0.1 mM 3-isobutyl-1-methyl-xanthine (Sigma). After 15 minutes of incubation at 37° C., 16-16-dimethyl PGE-2 or compounds at desired concentrations in 20 μl of assay medium were added to cells and further incubated at 37° C. for 1 hour. Total cAMP (intra- and extra-cellular) was measured by using a cAMP-screen ELISA System (Tropix, #CS1000).

In the next test the target is T2, hEP2 receptors (Homo sapiens, UniProt P43116).
T2 construct: expressed in transfected cells; host or cells: HEK293-EBNA
The experiment in a line: EP2 cAMP assay, HEK293-EBNA cells transfected with pCEP4-hEP2 receptors. The test is classed as cell-based. The settings on record: total cAMP, 1 hour. The procedure:
Compounds of the invention were tested in a total cAMP assay as follows. […] After overnight incubation, the medium was removed from each well and replaced with 45 μl of assay medium consisted of phenol red free D-MEM/F-12, 0.1% BSA (GibcoBRL) and 0.1 mM 3-isobutyl-1-methyl-xanthine (Sigma). […] Total cAMP (intra- and extra-cellular) was measured by using a cAMP-screen ELISA System (Tropix, #CS1000).

The subject of test [1] is mature mouse ovulation induction model. Description: In vivo ovulation assay (mature mouse ovulation induction model). The settings on record: Mus musculus, po, read-out: calculated ED50 (dose of drug which produces 50% of its effect), ovulation; p.o. administration route, mice. On the procedure:
Ovulation induction activity of compounds of the invention was tested in a mature mouse ovulation induction model.
Mature 10-week-old CD-mice were used. Reagents were prepared as follows: PMSG (pregnant mare serum gonadotropin) (Calbiochem, cat #367222) and hCG (Serono) are diluted in PBS. PGE2 (Cayman, Ann Arbor Mich.) was dissolved in ethanol and diluted with 0.154 M […] Buffer (pH 8.0) to final concentration of ethanol of less than 3 percent. A compound of the invention (based on solubility) was pre-dissolved in ethanol, DMSO or other reagents. The compound of the invention was then diluted with saline or other diluents such as PBS or NP3S (5% N-methyl-pyrrolidinone/30% PEG400/25% PEG200/20% Propylene Glycol in saline). PMSG stimulates ovarian follicular development. After PMSG stimulation, the mature follicules can be stimulated to rupture and release oocytes by an ovulation trigger, such as hCG or a compound of the invention.
The following test protocol is employed for the test animals (typically 5 animals per test group). • Day 1: Inject 5 IU PMSG in 200 μl PBS (i.p. 15:00 PM) • Day 2: No administration • Day 3: Injection of ovulation trigger hCG (i.p.) or hCG replacement (PGE2 or compound of the invention, s.c., i.v. or oral route), 15:00 PM • Day 4: Eighteen hours after injections of the ovulation triggers, animals were sacrificed by CO2 asphyxiation and abdominal cavities were opened using fine scissors and forceps. Uterus, oviducts and ovaries were collected and placed in pre-labeled dishes containing phosphate buffered saline (PBS). The collected tissues were transferred to the laboratory and intact oviduct carefully dissected out from uterus and ovary under the dissection microscope. The dissected oviducts were placed on the glass microscopic slide and covered with another slide. Two slides were taped on two edges. The numbers of ovulated ova in the oviducts were counted using upright microscope with 4× objective and recorded. […]

pEC50, pKi: −log10 of the molar value.

h-EP2, sequence (P43116 whole entry): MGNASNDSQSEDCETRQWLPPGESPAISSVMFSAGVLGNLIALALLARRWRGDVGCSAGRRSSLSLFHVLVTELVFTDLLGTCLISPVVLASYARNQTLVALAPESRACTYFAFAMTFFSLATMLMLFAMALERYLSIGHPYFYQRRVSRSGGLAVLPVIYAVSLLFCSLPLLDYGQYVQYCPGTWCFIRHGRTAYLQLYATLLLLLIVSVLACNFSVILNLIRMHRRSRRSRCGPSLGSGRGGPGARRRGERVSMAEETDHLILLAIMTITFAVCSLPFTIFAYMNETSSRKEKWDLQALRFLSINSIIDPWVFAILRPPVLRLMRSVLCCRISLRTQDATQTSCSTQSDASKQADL
T2 sequence (P43116 whole entry): as above
h-EP4, sequence (P35408 whole entry): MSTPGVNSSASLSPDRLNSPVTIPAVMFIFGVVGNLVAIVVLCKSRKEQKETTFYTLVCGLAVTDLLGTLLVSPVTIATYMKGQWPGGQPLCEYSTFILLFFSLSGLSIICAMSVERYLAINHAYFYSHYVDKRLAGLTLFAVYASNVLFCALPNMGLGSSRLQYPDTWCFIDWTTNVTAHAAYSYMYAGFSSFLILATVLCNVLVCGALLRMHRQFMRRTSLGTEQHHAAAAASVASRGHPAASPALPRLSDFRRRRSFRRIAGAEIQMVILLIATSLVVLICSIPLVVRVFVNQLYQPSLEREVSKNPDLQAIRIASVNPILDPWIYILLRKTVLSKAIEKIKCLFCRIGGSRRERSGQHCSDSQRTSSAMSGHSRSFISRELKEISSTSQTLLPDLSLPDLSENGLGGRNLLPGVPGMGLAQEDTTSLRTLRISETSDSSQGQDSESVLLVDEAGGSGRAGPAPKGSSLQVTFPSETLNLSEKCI
T1 sequence (P35408 whole entry): as above

With `CCCC/C(C)=C/C=C\[C@H]1CCC(=O)N1CCCc1ccc(C(=O)O)s1` (single isomer, unassigned) [Example 13], the negative-log Ki (pKi) at h-EP2 was 7.22; on h-EP4, 8.22.
Consider `CCCC/C(C)=C/C=C\[C@H]1CCC(=O)N1CCCc1ccc(C(=O)O)s1` (single isomer, unassigned) [Example 19], for which the values for the negative logarithm of the Ki (pKi) on h-EP2 and at h-EP4 were 7.22 and 8.22, respectively. Further, the pEC50 was 8.70 at hEP4 receptors and 7.31 at hEP2 receptors.
In the case of `CCCC/C=C/C=C\[C@H]1CCC(=O)N1CCc1ccc(C(=O)O)cc1` [Example 1, 4-(2-{(2R)-2-[(1Z,3E)-octa-1,3-dienyl]-5-oxopyrrolidin-1-yl}ethyl)benzoic acid], the pKi was 7.06 at h-EP2 and 7.60 on h-EP4. In addition, the pEC50 was 7.70 at hEP4 receptors and 6.71 at hEP2 receptors.
On the same counts, the results for `CC/C=C/C=C\[C@H]1CCC(=O)N1CCc1ccc(C(=O)O)cc1` [Example 7, 4-(2-{(2R)-2-[(1Z,3E)-hexa-1,3-dienyl]-5-oxopyrrolidin-1-yl}ethyl)benzoic acid] are 5.82, 7.15, 8.70 and 5.59.
Turning to `CC(C)=CCC/C(C)=C/C=C\[C@H]1CCC(=O)N1CCc1ccc(C(=O)O)cc1` [Example 11, 4-(2-{(2R)-2-[(1Z,3E)-4,8-dimethylnona-1,3,7-trienyl]-5-oxopyrrolidin-1-yl}ethyl)benzoic acid], the negative logarithm of the Ki (pKi) is 6.39 at h-EP2 and 7.35 at h-EP4. The negative-log EC50 (pEC50) is 8.70 at hEP4 receptors and 5.98 at hEP2 receptors.
For the compound `CC(C)=CCC/C(C)=C/C=C/[C@H]1CCC(=O)N1CCc1ccc(C(=O)O)cc1` [Example 12, 4-(2-{(2R)-2-[(1E,3E)-4,8-dimethylnona-1,3,7-trienyl]-5-oxopyrrolidin-1-yl}ethyl)benzoic acid], the negative logarithm of the Ki (pKi) at h-EP2 was 6.12; on h-EP4, 6.33.
The like results for `CCCC/C=C/C=C\[C@H]1CCC(=O)N1CCCc1ccc(C(=O)O)s1` [Example 17, 5-(3-{(2R)-2-[(1Z,3E)-octa-1,3-dienyl]-5-oxopyrrolidin-1-yl}propyl)thiophene-2-carboxylic acid] were, in that order, 7.36 and 7.29.
In the case of `C/C(=C\C=C/[C@H]1CCC(=O)N1CCc1ccc(C(=O)O)cc1)CC1CCCC1` [Example 30, 4-(2-{(2)-2-[(1Z,3E)-5-cyclopentyl-4-methylpenta-1,3-dienyl]-5-oxopyrrolidin-1-yl}ethyl)benzoic acid], the negative logarithm of the Ki (pKi) was 7.22 on h-EP2 and 6.93 at h-EP4.
Take `C/C(=C\C=C/[C@H]1CCC(=O)N1CCc1ccc(C(=O)O)cc1)c1ccccc1` [Example 32, 4-(2-{(2R)-2-[(1Z,3E)-4-phenylpenta-1,3-dienyl]-5-oxopyrrolidin-1-yl}ethyl)benzoic acid]: the values for the pKi at h-EP2 and on h-EP4 were 6.13 and 7.54, respectively.
With `CCC/C(C)=C/C=C\[C@H]1CCC(=O)N1CCc1ccc(C(=O)O)cc1` [Example 44, 4-(2-{(2R)-2-[(1Z,3E)-4-methylhepta-1,3-dienyl]-5-oxopyrrolidin-1-yl}ethyl)benzoic acid], the pKi was 7.10 at h-EP2 and 8.22 on h-EP4. Further, the ED50 in test [1] is 1 mg/kg.
For `C/C(=C\C=C\[C@H]1CCC(=O)N1CCc1ccc(C(=O)O)cc1)C(C)C` [Example 55, 4-(2-{(2R)-2-[(1E,3E)-4,5-dimethylhexa-1,3-dienyl]-5-oxopyrrolidin-1-yl}ethyl)benzoic acid], the values for the negative logarithm of the Ki (pKi) at h-EP2 and on h-EP4 were 7.44 and 6.79, respectively.
On the same counts, the results for `O=C(O)c1ccc(CCN2C(=O)CC[C@@H]2/C=C\C=C2CCCCC2)cc1` [Example 56] are 7.57 and 6.51.
As to `O=C(O)c1ccc(CCN2C(=O)CC[C@@H]2/C=C\C=C(/c2ccccc2)C(F)(F)F)cc1` [Example 58], the figures for the negative logarithm of the Ki (pKi) at h-EP2 and on h-EP4 were 7.00 and 7.16, respectively.
Regarding `C/C(=C\C=C\[C@H]1CCC(=O)N1CCc1ccc(C(=O)O)cc1)C1CC1` [Example 63, 4-(2-{(2R)-2-[(1E,3E)-4-cyclopropylpenta-1,3-dienyl]-5-oxopyrrolidin-1-yl}ethyl)benzoic acid], the pKi on h-EP2 is 6.56; on h-EP4, 6.78.
